Measurements taken from patent publication US20030181426A1, “Compositions and methods for treating pain using cyclooxygenase-1 inhibitors” (priority 2002, published 2003).
Where two headings read alike, the source gives them in different places.

Assays:
[1] = system: chronic pain; assay: Intrathecal ketorolac in patients with chronic pain receiving spinal morphine (VAS); type: in vivo, humans
Source text: This study focused on safety, but efficacy measures were obtained by having patients rate their pain using a visual analog scale (VAS) before, and at intervals after, intrathecal injection of ketorolac. Data are available from the first 6 patients in this open label study.

[2] = system: acute noxious heat; assay: Heat pain testing with Peltier-controlled thermode in volunteers; type: in vivo, humans; details: for Pain threshold temperatures: in °C (unit assumed)
[3] = system: locomotor activity after laparotomy; assay: Post-laparotomy locomotor activity model; type: in vivo, rats
[4] = Ketorolac concentration in cerebrospinal fluid (HPLC); type: in vivo, humans; details: for concentration at 60 min: human, other: intrathecal (lumbar puncture), lumbar CSF 60 min after injection
Protocol: Escalation to the next dose was made only after review of side effects occurring at lower doses, with pre-defined stopping criteria. CSF samples were quantitatively extracted by C-18 reverse phase cartridge chromatography and eluted with acetonitrile. Concentrated eluates were injected on to a HPLC equipped with a Phenomenex 'Prodigy' C-18 reverse phase column (250 mm×4.6 mm). Peaks were detected with an Agilent Model 1100 UV detector set at a wavelength of 313. All unknowns, standards and controls contained an equal quantity of internal standard, 200 ng of indoprofen.

[5] = system: tactile hypersensitivity after paw incision; assay: Brennan model: tactile hypersensitivity after paw incision, von Frey withdrawal threshold; type: in vivo, male Sprague-Dawley rats
[6] = system: tactile allodynia; assay: L5 and L6 spinal nerve ligation (SNL) tactile allodynia, lidocaine and ketorolac; type: in vivo, male Sprague-Dawley rats
[7] = system: noxious heat; assay: Latency to paw withdrawal from noxious heat; type: in vivo, male Sprague-Dawley rats
Protocol: After Animal Care and Use Committee approval, adult male Sprague-Dawley rats (240-330 g; Harlan, Indianapolis, Ind.) were anesthetized with halothane. A catheter was inserted, as previously described, through a small nick in the cisterna magnum membrane into the intrathecal space and advanced 7.5 cm such that its tip lay in the lumbar intrathecal space. […] After catheter implantation, rats were housed individually with a 12 h/12 h light/dark cycle and an unlimited supply of water and food. Experiments occurred at least 6 days after surgery.

[8] = system: PGE2; assay: CSF PGE2 concentrations in conscious dogs after i.t. ketorolac; type: in vivo; details: within 30 min of injection
[9] = not given; remark: listed apart in the source
[10] = system: tactile allodynia; assay: PSNL tactile allodynia, local and systemic ketorolac; type: in vivo, rats; details: for duration of reversal of tactile allodynia: disappeared by day 5; for tactile allodynia in the ipsilateral paw: three hours after injection
Protocol: PSNL was performed as described above. […] Three rats in each group were also injected with normal saline to serve as controls. For all injections, rats were briefly anaesthetized by inhalation of 2-4% halothane/96% oxygen and air. Perineural injection was performed as previously described ([…] al. 1995). Briefly, the rat was held in lateral recumbency with the limb to be injected forming a right angle with a longitudinal axis of the trunk. The greater trochanter and ischial tuberosity were localized by palpation. On an imaginary line from the greater trochanter to the ischial tuberosity, about one third of the distance caudal to the greater trochanter, a 25-gauge injection needle was advanced from dorsolateral direction at a 45° angle until the tip encountered the ischium. A total volume of 0.2 mL was injected in a fanning motion along the path of the sciatic nerve.

[11] = i.t. 50 μg, compared to i.t. saline control
[12] = intrathecal ketorolac 50 μg, 1 week after 200 μg intrathecal lidocaine
[13] = intrathecal ketorolac 50 μg, 1 week after 300 μg intrathecal lidocaine

O=C(c1ccccc1)c1ccc2n1CCC2C(=O)O (stereo not shown) [ketorolac]
spinal neurotoxicity (i.t., rats): no evidence for spinal neurotoxicity
systemic toxicity at large doses (rat, in vivo): gastrointestinal ulceration and bleeding
VAS pain ([1]; beginning 1 hour after injection and lasting throughout the remaining 3 hours of observation, n=6): significantly reduced
adverse events ([1]; i.t. 0.5 mg (5 patients) or 1.0 mg (1 patient), patients on spinal morphine): no significant adverse events
VAS pain after injection ([1]; n=6): 3
VAS pain prior to injection ([1]; n=6): 5
temperature pain threshold ([2]; 0.5 mg i.t.): did not affect
analgesic effect to acute noxious heat (pain magnitude report) ([2]; 0.5 mg i.t., moderate and severe pain intensities, FIG. 3): apparent effect
Pain threshold temperatures ([2]; Arm, 0.25 mg i.t., 0.25 h): 45 ± 1.0
Pain threshold temperatures ([2]; Arm, 0.25 mg i.t., 0.5 h): 44 ± 1.5
Pain threshold temperatures ([2]; Arm, 0.25 mg i.t., 1 h): 45 ± 1.3
Pain threshold temperatures ([2]; Arm, 0.25 mg i.t., 2 h): 44 ± 1.7
Pain threshold temperatures ([2]; Arm, 0.25 mg i.t., 3 h): 45 ± 1.1
Pain threshold temperatures ([2]; Arm, 0.25 mg i.t., 4 h): 44 ± 2.2
Pain threshold temperatures ([2]; Arm, 0.25 mg i.t., 24 h): 46 ± 0.5
Pain threshold temperatures ([2]; Arm, 0.25 mg i.t., time 0 h (injection at time 0)): 45 ± 1.1
Pain threshold temperatures ([2]; Arm, 0.50 mg i.t., 0.25 h): 44 ± 1.9
Pain threshold temperatures ([2]; Arm, 0.50 mg i.t., 0.5 h): 43 ± 1.2
Pain threshold temperatures ([2]; Arm, 0.50 mg i.t., 1 h): 44 ± 1.7
Pain threshold temperatures ([2]; Arm, 0.50 mg i.t., 2 h): 45 ± 1.9
Pain threshold temperatures ([2]; Arm, 0.50 mg i.t., 3 h): 46 ± 1.7
Pain threshold temperatures ([2]; Arm, 0.50 mg i.t., 4 h): 46 ± 1.7
Pain threshold temperatures ([2]; Arm, 0.50 mg i.t., 24 h): 44 ± 1.7
Pain threshold temperatures ([2]; Arm, 0.50 mg i.t., time 0 h (injection at time 0)): 45 ± 1.9
Pain threshold temperatures ([2]; Arm, 1.0 mg i.t., 0.25 h): 41 ± 1.3
Pain threshold temperatures ([2]; Arm, 1.0 mg i.t., 0.5 h): 40 ± 0.5
Pain threshold temperatures ([2]; Arm, 1.0 mg i.t., 1 h): 39 ± 0.7
Pain threshold temperatures ([2]; Arm, 1.0 mg i.t., 2 h): 41 ± 1.2
Pain threshold temperatures ([2]; Arm, 1.0 mg i.t., 3 h): 42 ± 0.9
Pain threshold temperatures ([2]; Arm, 1.0 mg i.t., 4 h): 42 ± 1.5
Pain threshold temperatures ([2]; Arm, 1.0 mg i.t., 24 h): 41 ± 1.6
Pain threshold temperatures ([2]; Arm, 1.0 mg i.t., time 0 h (injection at time 0)): 40 ± 0.5
Pain threshold temperatures ([2]; Arm, 2.0 mg i.t., 0.25 h): 44 ± 1.9
Pain threshold temperatures ([2]; Arm, 2.0 mg i.t., 0.5 h): 43 ± 1.4
Pain threshold temperatures ([2]; Arm, 2.0 mg i.t., 1 h): 40 ± 2.1
Pain threshold temperatures ([2]; Arm, 2.0 mg i.t., 2 h): 43 ± 1.8
Pain threshold temperatures ([2]; Arm, 2.0 mg i.t., 3 h): 43 ± 1.6
Pain threshold temperatures ([2]; Arm, 2.0 mg i.t., 4 h): 43 ± 1.9
Pain threshold temperatures ([2]; Arm, 2.0 mg i.t., 24 h): 45 ± 2.3
Pain threshold temperatures ([2]; Arm, 2.0 mg i.t., time 0 h (injection at time 0)): 44 ± 1.3
Pain threshold temperatures ([2]; Leg, 0.25 mg i.t., 0.25 h): 45 ± 1.1
Pain threshold temperatures ([2]; Leg, 0.25 mg i.t., 0.5 h): 46 ± 1.1
Pain threshold temperatures ([2]; Leg, 0.25 mg i.t., 1 h): 47 ± 0.7
Pain threshold temperatures ([2]; Leg, 0.25 mg i.t., 2 h): 46 ± 1.5
Pain threshold temperatures ([2]; Leg, 0.25 mg i.t., 3 h): 45 ± 1.1
Pain threshold temperatures ([2]; Leg, 0.25 mg i.t., 4 h): 46 ± 0.9
Pain threshold temperatures ([2]; Leg, 0.25 mg i.t., 24 h): 45 ± 1.1
Pain threshold temperatures ([2]; Leg, 0.25 mg i.t., time 0 h (injection at time 0)): 45 ± 1.3
Pain threshold temperatures ([2]; Leg, 0.50 mg i.t., 0.25 h): 46 ± 2.4
Pain threshold temperatures ([2]; Leg, 0.50 mg i.t., 0.5 h): 48 ± 2.2
Pain threshold temperatures ([2]; Leg, 0.50 mg i.t., 1 h): 46 ± 1.7
Pain threshold temperatures ([2]; Leg, 0.50 mg i.t., 2 h): 46 ± 2.5
Pain threshold temperatures ([2]; Leg, 0.50 mg i.t., 3 h): 46 ± 1.7
Pain threshold temperatures ([2]; Leg, 0.50 mg i.t., 4 h): 46 ± 2.4
Pain threshold temperatures ([2]; Leg, 0.50 mg i.t., 24 h): 45 ± 2.0
Pain threshold temperatures ([2]; Leg, 0.50 mg i.t., time 0 h (injection at time 0)): 45 ± 1.4
Pain threshold temperatures ([2]; Leg, 1.0 mg i.t., 0.25 h): 42 ± 1.7
Pain threshold temperatures ([2]; Leg, 1.0 mg i.t., 0.5 h): 42 ± 0.5
Pain threshold temperatures ([2]; Leg, 1.0 mg i.t., 1 h): 44 ± 0.5
Pain threshold temperatures ([2]; Leg, 1.0 mg i.t., 2 h): 42 ± 1.5
Pain threshold temperatures ([2]; Leg, 1.0 mg i.t., 3 h): 43 ± 1.0
Pain threshold temperatures ([2]; Leg, 1.0 mg i.t., 4 h): 43 ± 1.1
Pain threshold temperatures ([2]; Leg, 1.0 mg i.t., 24 h): 42 ± 0.9
Pain threshold temperatures ([2]; Leg, 1.0 mg i.t., time 0 h (injection at time 0)): 41 ± 1.3
Pain threshold temperatures ([2]; Leg, 2.0 mg i.t., 0.25 h): 45 ± 1.4
Pain threshold temperatures ([2]; Leg, 2.0 mg i.t., 0.5 h): 43 ± 1.3
Pain threshold temperatures ([2]; Leg, 2.0 mg i.t., 1 h): 44 ± 2.1
Pain threshold temperatures ([2]; Leg, 2.0 mg i.t., 2 h): 44 ± 2.3
Pain threshold temperatures ([2]; Leg, 2.0 mg i.t., 3 h): 43 ± 1.6
Pain threshold temperatures ([2]; Leg, 2.0 mg i.t., 4 h): 44 ± 1.8
Pain threshold temperatures ([2]; Leg, 2.0 mg i.t., 24 h): 45 ± 2.2
Pain threshold temperatures ([2]; Leg, 2.0 mg i.t., time 0 h (injection at time 0)): 45 ± 1.6
response to suprathreshold stimuli ([2]; any dose (0.25-2 mg i.t.)): no effect
threshold to heat pain in either the arm or the leg ([2]; i.t. 0.25-2 mg): unaffected
analgesia to acute noxious heat ([2]; i.t., doses up to 1.0 mg): several hours of analgesia
ambulatory locomotor activity after laparotomy [3, 11]: increased
vertical locomotor activity after laparotomy [3, 11]: increased
locomotor activity in the absence of surgery ([3]; ketorolac alone): no effect
effect on morphine's effect on ambulatory activity ([3]; systemic ketorolac 5 mg/kg i.p. with morphine): potentiate morphine's effect
ambulatory activity after laparotomy ([3]; systemic, 5 mg/kg i.p.): failed to affect ambulatory activity
dose dependence of lumbar CSF drug concentration ([4]; 60 min after injection): apparent plateau at the 1 and 2 mg doses
concentration at 60 min ([4]; 0.5 mg, 0.50 mg i.t.): 13400 ± 1200 ng/mL
concentration at 60 min ([4]; 0.25 mg i.t.): 4600 ± 200 ng/mL
concentration at 60 min ([4]; 1.0 mg i.t.): 30700 ± 8800 ng/mL
concentration at 60 min ([4]; 2.0 mg i.t.): 33500 ± 5200 ng/mL
withdrawal threshold (von Frey) after paw incision ([5]; i.t. 50 μg given on the first postoperative day, established tactile hypersensitivity, within 30 min): increased withdrawal threshold
withdrawal threshold (von Frey) after paw incision ([5]; i.t. 50 μg, pretreatment 15 min before surgery, compared to saline control 2 hr later and on the next day): increased withdrawal threshold
tactile allodynia caused by SNL ([6]; intrathecal ketorolac 50 μg alone): failed to attenuate
antiallodynic effect ([6]; intrathecal ketorolac 50 μg, 1 week after 100 μg intrathecal lidocaine): failed to exert any antiallodynic effect
duration of reversal of tactile allodynia [6, 12]: 4 h
tactile allodynia caused by SNL [6, 12]: reversed tactile allodynia
duration of reversal of tactile allodynia [6, 13]: 4 h
tactile allodynia caused by SNL [6, 13]: reversed tactile allodynia
SNL-induced tactile allodynia ([6]; intrathecal ketorolac 50 μg, 1 week following prior intrathecal ketorolac 50 μg): failed to alleviate
SNL-induced tactile allodynia ([6]; intrathecal ketorolac 100 μg alone): failed to alleviate
SNL-induced tactile allodynia ([6]; intrathecal ketorolac 100 μg, 1 week after intrathecal lidocaine): exhibited the antiallodynic effect
antiallodynic effect ([6]; one day after intrathecal ketorolac, rats previously given 200 and 300 μg lidocaine): disappeared
antinociception (latency to paw withdrawal from noxious heat) ([7]; addition of ketorolac to clonidine): increased antinociception
antinociception (latency to paw withdrawal from noxious heat) ([7]; drug alone, rats with intrathecal catheter): did not
withdrawal threshold to noxious heat ([7]; i.t. ketorolac, rats): lack of effect
reduction of CSF PGE2 concentrations [8]: > 90%
systemic toxicity at large doses ([9]; dog, in vivo): gastrointestinal ulceration and bleeding
spinal neurotoxicity ([9]; i.t., dogs): no evidence for spinal neurotoxicity
duration of reversal of tactile allodynia ([10]; 0.2 mL 0.5% intramuscular): 3 days
tactile allodynia in the ipsilateral paw ([10]; 0.2 mL 0.5% intramuscular): reversed
duration of reversal of tactile allodynia ([10]; 0.2 mL 0.5% intraperitoneal): 3 days
tactile allodynia in the ipsilateral paw ([10]; 0.2 mL 0.5% intraperitoneal): reversed
tactile allodynia in the ipsilateral hindpaw ([10]; 0.2 mL 0.5% intraplantar, 3 weeks after PSNL, three hours to 5 days): reversed the tactile allodynia
antiallodynic effect ([10]; 0.2 mL 0.5% peri-neural, 3 weeks after PSNL): slow onset of antiallodynic effect that was observed only 3 and 5 days after injection
